The values below come from patent US20080194544A1, “AQUEOUS FORMULATIONS OF EPINASTINE FOR TREATING ALLERGIC RHINITIS” (priority 2007, published 2008).

SMILES strings stand for the structures. Bounds are passed on as bounds.

The conditions of this data set: intranasal 0.05% or 0.1% spray. As for the experimental part: Each group started with approximately 190 subjects.
The plasma samples from 43 subjects included in this clinical trial were collected for pharamacokinetic analysis following the first dose (Day 1) and the last dose (Day 14). Plasma epinastine levels following intranasal administration were determined.

Regarding `NC1=NCC2c3ccccc3Cc3ccccc3N12` (centres unmarked) [epinastine, 3-amino-9,13b-dihydro-1H-dibenz-[c,-f]imidazol[1,5-a]azepine], the “dose proportionality of plasma epinastine concentrations” value is “generally proportional to the nasal dose administered”. The “plasma concentrations of epinastine” value (after first dose (Day 1) and last dose (Day 14), 43 subjects) is recorded as below 1 ng/mL.
